Reference: ChEMBL document CHEMBL2331280, “Cytotoxic, antitopoisomerase IIα, and anti-HIV-1 activities of triterpenoids isolated from leaves and twigs of Gardenia carinata” (J Nat Prod, 2013)
Active and inactive are the calls of the source. No cut-off for these calls is given here.

How the values were obtained:
[1] = target: Human immunodeficiency virus type 1 reverse transcriptase (Human immunodeficiency virus 1, UniProt Q72547); test: Inhibition of HIV-1 reverse transcriptase assessed as decrease in incorporation of [3H]TTP into polyA template
KB = test: Cytotoxicity against human KB cells after 72 hrs by sulforhodamine B assay; assay type: functional; conditions: read-out: ED50 (the source's name)
Col2 = test: Cytotoxicity against human Col2 cells after 72 hrs by sulforhodamine B assay; assay type: functional; conditions: Col2, 72 h, read-out: ED50 (the source's name)
P388 = test: Cytotoxicity against mouse P388 cells after 48 hrs by sulforhodamine B assay; assay type: functional; conditions: P388, 48 h, read-out: ED50 (the source's name)
MCF7 = test: Cytotoxicity against human MCF7 cells after 72 hrs by sulforhodamine B assay; assay type: functional; conditions: MCF7, 72 h, read-out: ED50 (the source's name)
[2] = target: Human immunodeficiency virus type 1 reverse transcriptase (Human immunodeficiency virus 1) (UniProt Q72547); test: Inhibition of HIV-1 reverse transcriptase assessed as decrease in incorporation of [3H]TTP into polyA template at 200 ug/ml
[3] = target: DNA topoisomerase 2-alpha (Homo sapiens) (UniProt P11388); test: Inhibition of human DNA topoisomerase 2 alpha-mediated supercoiled pBR322 DNA relaxation at 20 uM after 1 hr by agarose gel electrophoresis
HEK293 = test: Cytotoxicity against human HEK293 cells after 72 hrs by sulforhodamine B assay; assay type: functional; conditions: HEK293, 72 h, read-out: ED50 (the source's name)
[4] = Cytotoxicity against rat ASK cells after 72 hrs by sulforhodamine B assay; assay type: functional; conditions: read-out: ED50 (the source's name)
Lu1 = test: Cytotoxicity against human Lu1 cells after 72 hrs by sulforhodamine B assay; assay type: functional; conditions: Lu1, 72 h, read-out: ED50 (the source's name)
[5] = Cytotoxicity against human 1A2 cells assessed as inhibition of metabolic activity by XTT assay; assay type: ADME, cell-based
[6] = tested on: Human immunodeficiency virus 1; test: Antiviral activity against deltaTat/rev deffective HIV-1 MC99 infected in human 1A2 cells assessed as inhibition of syncytia formation after 3 days; assay type: functional, organism-based; conditions: Human immunodeficiency virus 1, MC99, 1A2, 72 h
[7] = Selectivity index, ratio of IC50 for human 1A2 cells to EC50 for deltaTat/rev deffective HIV-1 MC99 infected in human 1A2 cells; assay type: toxicity, cell-based; conditions: read-out: Ratio IC50/EC50

Chain of DNA topoisomerase 2-alpha (Homo sapiens) (P11388 whole entry): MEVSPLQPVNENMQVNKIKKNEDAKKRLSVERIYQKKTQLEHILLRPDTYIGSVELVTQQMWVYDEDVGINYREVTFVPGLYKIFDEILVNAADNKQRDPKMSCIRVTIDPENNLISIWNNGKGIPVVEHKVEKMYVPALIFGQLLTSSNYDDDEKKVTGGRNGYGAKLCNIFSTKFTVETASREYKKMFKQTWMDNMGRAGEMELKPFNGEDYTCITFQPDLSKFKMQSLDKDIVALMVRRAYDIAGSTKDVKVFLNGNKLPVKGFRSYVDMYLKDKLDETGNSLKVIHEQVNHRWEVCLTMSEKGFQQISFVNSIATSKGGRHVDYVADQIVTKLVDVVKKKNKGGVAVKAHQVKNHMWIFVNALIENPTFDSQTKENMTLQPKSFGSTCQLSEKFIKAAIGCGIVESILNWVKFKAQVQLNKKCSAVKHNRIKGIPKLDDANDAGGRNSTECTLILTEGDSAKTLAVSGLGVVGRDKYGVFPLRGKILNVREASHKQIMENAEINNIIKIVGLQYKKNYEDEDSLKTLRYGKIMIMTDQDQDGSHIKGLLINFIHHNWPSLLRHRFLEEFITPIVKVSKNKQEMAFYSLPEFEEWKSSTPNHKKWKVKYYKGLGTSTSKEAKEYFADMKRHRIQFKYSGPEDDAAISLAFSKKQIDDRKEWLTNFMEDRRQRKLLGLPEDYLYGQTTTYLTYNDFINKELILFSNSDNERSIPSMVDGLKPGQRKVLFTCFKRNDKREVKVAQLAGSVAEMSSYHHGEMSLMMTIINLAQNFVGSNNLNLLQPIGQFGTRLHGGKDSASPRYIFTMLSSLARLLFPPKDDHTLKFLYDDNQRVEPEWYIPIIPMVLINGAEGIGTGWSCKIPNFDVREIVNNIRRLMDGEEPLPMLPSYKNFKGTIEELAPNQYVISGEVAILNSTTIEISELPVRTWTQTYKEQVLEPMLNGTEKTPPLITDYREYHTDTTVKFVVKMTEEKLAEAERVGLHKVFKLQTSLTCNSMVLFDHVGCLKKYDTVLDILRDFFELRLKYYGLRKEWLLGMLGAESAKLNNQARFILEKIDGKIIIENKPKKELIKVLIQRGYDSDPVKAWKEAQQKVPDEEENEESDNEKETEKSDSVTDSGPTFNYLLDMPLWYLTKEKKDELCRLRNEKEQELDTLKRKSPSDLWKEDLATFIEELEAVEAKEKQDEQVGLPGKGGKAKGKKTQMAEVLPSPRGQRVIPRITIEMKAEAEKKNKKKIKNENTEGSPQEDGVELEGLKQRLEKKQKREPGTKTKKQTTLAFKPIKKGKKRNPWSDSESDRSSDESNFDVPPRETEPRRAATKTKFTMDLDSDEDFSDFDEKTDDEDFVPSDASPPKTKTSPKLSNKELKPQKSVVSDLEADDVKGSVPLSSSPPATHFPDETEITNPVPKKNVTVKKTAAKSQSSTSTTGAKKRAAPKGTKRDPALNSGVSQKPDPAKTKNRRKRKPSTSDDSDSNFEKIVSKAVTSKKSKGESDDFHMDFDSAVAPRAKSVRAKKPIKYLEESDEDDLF

In the case of C=C1C(=O)O[C@@H]2C[C@@H]3[C@]4(CC[C@]5(C)[C@@H]([C@H](C)CC(=O)C=C(C)C)CC[C@@]35C)C[C@]4(CCC(=O)O)[C@H]12 (relative stereo), the IC50 [1] is reported as 85.7 µM, the EC50 (KB) is reported as 7.3 µM and the EC50 (Col2) is reported as greater than 10 µM. It also gave an EC50 (P388) of 2.9 µM, an EC50 (MCF7) of 7.7 µM and an inhibition [2] of 81.2%. The inhibition [3] was “Active”, the EC50 (HEK293) was 5.2 µM and the EC50 [4] was greater than 10 µM. For the same compound, the EC50 (Lu1) was greater than 10 µM and the IC50 [5] was less than 8.1 µM.
In the case of C=C1C(=O)O[C@@H]2C[C@@H]3[C@]4(CC[C@]5(C)[C@@H]([C@H](C)CC(=O)C=C(C)C)CC[C@@]35C)C[C@]4(CCC(=O)OC)[C@H]12 [SECAUBRYOLIDE], the EC50 (KB) is reported as 2 µM, the EC50 (Col2) is reported as 5.8 µM and the EC50 (P388) is reported as 1 µM. The EC50 (MCF7) was 4.2 µM, the inhibition [2] was 0.4% and the inhibition [3] was “Active”. It also gave an EC50 (HEK293) of 3.2 µM, an EC50 [4] of 4.6 µM and an EC50 (Lu1) of 5 µM. For the same compound, the IC50 [5] was less than 7.9 µM.
Compound COc1cc2c(ccc3c4cc(OC)c(OC)cc4c[n+](C)c23)cc1O [FAGARONINE] has an IC50 [1] of 26.5 µM.
For C=C(C(=O)O)[C@@H]1CC[C@@H]2[C@]3(CC[C@]4(C)[C@@H]([C@H](C)CC(=O)C=C(C)C)CC[C@@]24C)C[C@]13CCC(=O)O, the IC50 [1] was 68.7 µM, the EC50 (KB) was greater than 10 µM and the EC50 (Col2) was greater than 10 µM. For the same compound, the EC50 (P388) was greater than 10 µM, the EC50 (MCF7) was greater than 10 µM and the EC50 [6] was less than 8.3 µM. It also gave an inhibition [2] of 88.1%, a selectivity ratio [7] greater than 7 and an EC50 (HEK293) greater than 10 µM. The EC50 [4] was greater than 10 µM, the EC50 (Lu1) was greater than 10 µM and the IC50 [5] was 57.7 µM.
C=C1C(=O)O[C@@H]2C[C@@H]3[C@]4(CC[C@]5(C)[C@@H]([C@H](C)CC(=O)CC(C)(C)O)CC[C@@]35C)C[C@]4(CCC(=O)OC)[C@H]12 (relative stereo) showed an EC50 (KB) of 6.8 µM, an EC50 (Col2) of 6.2 µM and an EC50 (P388) of 1.4 µM. The EC50 (MCF7) was 5.2 µM, the inhibition [2] was 35.9% and the inhibition [3] was “Active”. For the same compound, the EC50 (HEK293) was 4.1 µM, the EC50 [4] was 5.8 µM and the EC50 (Lu1) was 7.2 µM. For the same compound, the IC50 [5] was less than 15.2 µM.
COc1cc([C@@H]2c3cc4c(cc3[C@@H](O[C@@H]3O[C@@H]5CO[C@@H](C)O[C@H]5[C@H](O)[C@H]3O)[C@H]3COC(=O)[C@H]23)OCO4)cc(OC)c1O showed an inhibition [3] of 59%.
Compound CC(C)CC(=O)C[C@@H](C)[C@H]1CC[C@@]2(C)[C@@H]3CC[C@H]4[C@](C)(C(=O)O)[C@@H](O)C[C@H](O)[C@@]45C[C@@]35CC[C@]12C [CARINATIN A] has an EC50 (KB) greater than 10 µM, an EC50 (Col2) greater than 10 µM and an EC50 (P388) greater than 10 µM. The EC50 (MCF7) was greater than 10 µM, the EC50 [6] was 15.4 µM and the inhibition [2] was 6%. It also gave a selectivity ratio [7] of 1.8, an EC50 (HEK293) greater than 10 µM and an EC50 [4] greater than 10 µM. For the same compound, the EC50 (Lu1) was greater than 10 µM and the IC50 [5] was 27 µM.
With Cc1cn([C@H]2C[C@H](N=[N+]=[N-])[C@@H](CO)O2)c(=O)[nH]c1=O [ZIDOVUDINE] the EC50 [6] was 0.00395 µM and the IC50 [5] was greater than 10000 µM.
Compound C=C(CO)[C@@H]1CC[C@@H]2[C@H](CC[C@]3(C)[C@@H]([C@H](C)CC(=O)C=C(C)C)CC[C@@]23C)C[C@]12CCC(=O)O2 [CARINATIN G] has an EC50 (KB) greater than 10 µM, an EC50 (Col2) greater than 10 µM and an EC50 (P388) of 4.9 µM. The EC50 (MCF7) was greater than 10 µM, the EC50 [6] was 13.4 µM and the inhibition [2] was 25.5%. For the same compound, the selectivity ratio [7] was 3.4, the inhibition [3] was “Active” and the EC50 (HEK293) was greater than 10 µM. It also gave an EC50 [4] greater than 10 µM, an EC50 (Lu1) greater than 10 µM and an IC50 [5] of 46 µM.
C=C(C(=O)O)[C@@H]1CC[C@@H]2[C@]3(CC[C@]4(C)[C@@H]([C@H](C)CC(=O)C=C(C)C)CC[C@@]24C)C[C@]13CCC(=O)OC (relative stereo) gave an EC50 (KB) greater than 10 µM, an EC50 (Col2) greater than 10 µM and an EC50 (P388) greater than 10 µM. The EC50 (MCF7) was greater than 10 µM, the EC50 [6] was 43 µM and the inhibition [2] was 63.7%. It also gave a selectivity ratio [7] of 1.6, an EC50 (HEK293) greater than 10 µM and an EC50 [4] greater than 10 µM. It also gave an EC50 (Lu1) greater than 10 µM and an IC50 [5] of 69.5 µM.
For CC(C)CC(=O)C[C@@H](C)[C@H]1CC[C@@]2(C)[C@@H]3CC[C@H]4[C@](C)(C(=O)O)[C@@H](O)CC[C@@]45C[C@@]35CC[C@]12C (relative stereo), the EC50 (KB) was greater than 10 µM, the EC50 (Col2) was greater than 10 µM and the EC50 (P388) was 6.8 µM. It also gave an EC50 (MCF7) greater than 10 µM, an EC50 [6] of 62.7 µM and an inhibition [2] of 1.9%. For the same compound, the selectivity ratio [7] was 1.2, the inhibition [3] was “Active” and the EC50 (HEK293) was greater than 10 µM. It also gave an EC50 [4] greater than 10 µM, an EC50 (Lu1) greater than 10 µM and an IC50 [5] of 72.5 µM.
For C=C1COC(=O)CC[C@]23C[C@]24CC[C@]2(C)[C@@H]([C@H](C)CC(=O)C=C(C)C)CC[C@@]2(C)[C@@H]4CC[C@@H]13 (relative stereo), the EC50 (KB) was greater than 10 µM, the EC50 (Col2) was greater than 10 µM and the EC50 (P388) was greater than 10 µM. It also gave an EC50 (MCF7) greater than 10 µM, an EC50 [6] of 41.3 µM and an inhibition [2] of 11.6%. For the same compound, the selectivity ratio [7] was greater than 3.4, the EC50 (HEK293) was greater than 10 µM and the EC50 [4] was greater than 10 µM. It also gave an EC50 (Lu1) greater than 10 µM and an IC50 [5] greater than 138 µM.
Cc1c2ccncc2c(C)c2c1[nH]c1ccccc12 [ELLIPTECINE] gave an EC50 (KB) of 2.2 µM, an EC50 (Col2) of 2.2 µM and an EC50 (P388) of 1.9 µM. It also gave an EC50 (MCF7) of 2.3 µM, an EC50 (HEK293) of 1.9 µM and an EC50 [4] of 2.2 µM. For the same compound, the EC50 (Lu1) was 1.1 µM.
